Molecules are shown by their SMILES. Read-outs that look alike come from different tables or passages of the source.

Data set [1] concerns maximal electroshock seizure (generalized tonic-clonic seizures). The experiment in a line: MES test, oral administration to rats. Type of data set: in vivo. The conditions noted are these: 30 mg/kg.
Data set [2] shares this test system. The experiment in a line: Maximal Electroshock Seizure. It counts as in vivo, mice. The conditions noted are these: i.p.; for MES protection, animals protected/animals tested at 0.5 h / protection in the MES test in mice at 100 mg/kg (in words): mice; for MES protection, animals protected/animals tested at 0.5 h: 100 mg/kg (stated for 19 and 20). Background: The maximal electroshock test induces tonic seizures with an electrical stimulus.

Data set [3] has as its target T1, human Nav1.2 (Homo sapiens, UniProt Q99250). It counts as cell-based.
Another data set has as its system mice. Description: Acute toxicity, minimal motor impairment. It counts as in vivo. The conditions noted are these: i.p.
Data set [4] deals with T1, human Nav1.2. The following applies: cited from earlier work.

T1 sequence (Q99250 whole entry): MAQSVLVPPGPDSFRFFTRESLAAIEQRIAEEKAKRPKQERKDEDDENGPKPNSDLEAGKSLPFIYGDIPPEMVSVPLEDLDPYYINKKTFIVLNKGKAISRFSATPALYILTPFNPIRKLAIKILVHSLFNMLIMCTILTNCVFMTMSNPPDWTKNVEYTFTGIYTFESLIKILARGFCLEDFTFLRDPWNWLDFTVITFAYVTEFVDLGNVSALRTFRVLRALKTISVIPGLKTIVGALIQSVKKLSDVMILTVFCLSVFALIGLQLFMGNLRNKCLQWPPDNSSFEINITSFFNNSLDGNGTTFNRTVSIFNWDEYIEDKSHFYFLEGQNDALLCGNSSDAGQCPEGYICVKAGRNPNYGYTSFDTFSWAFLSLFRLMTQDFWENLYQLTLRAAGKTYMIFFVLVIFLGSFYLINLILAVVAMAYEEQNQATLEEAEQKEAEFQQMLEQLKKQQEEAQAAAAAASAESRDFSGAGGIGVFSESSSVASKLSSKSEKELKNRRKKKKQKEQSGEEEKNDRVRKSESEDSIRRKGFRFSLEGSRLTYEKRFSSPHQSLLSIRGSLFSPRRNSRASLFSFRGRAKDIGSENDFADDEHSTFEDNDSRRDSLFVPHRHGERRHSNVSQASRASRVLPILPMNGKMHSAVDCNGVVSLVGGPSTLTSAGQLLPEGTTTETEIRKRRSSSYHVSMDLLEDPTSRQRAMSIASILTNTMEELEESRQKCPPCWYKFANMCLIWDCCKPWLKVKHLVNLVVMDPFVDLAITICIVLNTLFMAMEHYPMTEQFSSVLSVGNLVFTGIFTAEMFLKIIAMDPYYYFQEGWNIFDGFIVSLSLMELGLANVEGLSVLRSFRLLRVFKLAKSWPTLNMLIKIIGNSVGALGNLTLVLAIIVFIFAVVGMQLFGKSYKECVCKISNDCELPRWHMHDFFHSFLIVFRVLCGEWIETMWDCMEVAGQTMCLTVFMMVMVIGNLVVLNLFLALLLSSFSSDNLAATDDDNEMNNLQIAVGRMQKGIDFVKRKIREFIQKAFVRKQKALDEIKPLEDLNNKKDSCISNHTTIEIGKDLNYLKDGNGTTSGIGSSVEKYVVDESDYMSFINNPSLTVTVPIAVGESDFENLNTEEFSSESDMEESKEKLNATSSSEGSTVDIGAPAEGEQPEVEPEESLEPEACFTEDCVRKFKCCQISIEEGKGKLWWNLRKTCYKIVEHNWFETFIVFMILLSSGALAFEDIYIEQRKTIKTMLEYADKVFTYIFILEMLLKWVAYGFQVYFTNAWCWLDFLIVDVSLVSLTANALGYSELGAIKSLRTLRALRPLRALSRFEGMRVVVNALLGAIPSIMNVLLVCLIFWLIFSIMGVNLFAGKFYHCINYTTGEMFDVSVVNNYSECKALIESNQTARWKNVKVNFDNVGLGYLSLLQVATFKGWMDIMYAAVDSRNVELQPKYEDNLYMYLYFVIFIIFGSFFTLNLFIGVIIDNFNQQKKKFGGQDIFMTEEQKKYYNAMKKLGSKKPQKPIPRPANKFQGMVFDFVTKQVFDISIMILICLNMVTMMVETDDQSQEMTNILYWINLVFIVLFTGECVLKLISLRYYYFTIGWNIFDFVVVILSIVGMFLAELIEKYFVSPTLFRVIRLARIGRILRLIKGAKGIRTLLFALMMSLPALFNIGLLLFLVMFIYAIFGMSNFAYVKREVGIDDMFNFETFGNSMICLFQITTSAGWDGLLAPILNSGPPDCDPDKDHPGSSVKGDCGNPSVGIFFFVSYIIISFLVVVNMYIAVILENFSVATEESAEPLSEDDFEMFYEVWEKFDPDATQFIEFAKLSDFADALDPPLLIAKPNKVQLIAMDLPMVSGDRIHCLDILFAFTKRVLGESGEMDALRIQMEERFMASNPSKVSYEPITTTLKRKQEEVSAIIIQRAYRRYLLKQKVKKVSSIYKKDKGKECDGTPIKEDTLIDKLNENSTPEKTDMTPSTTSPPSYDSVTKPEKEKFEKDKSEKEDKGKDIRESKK

For `Clc1ccc(-c2c[nH]c(-c3ccccc3)n2)cc1` [Compound 19], the “ability to prevent seizure spread in the MES test after oral administration (in words)” value (shortened to “ability to prevent seizure spread”) in data set [1] was “not able to prevent seizure spread”. Moreover, the “MES protection, animals protected/animals tested at 0.5 h” value in data set [2] is 3/3.
In the case of `COc1ccc(-c2c[nH]c(-c3ccccc3)n2)cc1` [Compound 21], the “ability to prevent seizure spread” value in data set [1] is listed as “not able to prevent seizure spread”.
Turning to `O=[N+]([O-])c1ccc(-c2c[nH]c(-c3ccccc3)n2)cc1` [Compound 23], in data set [2], the “protection in the MES test in mice at 100 mg/kg (in words)” value (shortened to “protection in the MES test in mice”) is given as “Some protection”.
As for `FC(F)(F)c1cccc(-c2c[nH]c(-c3cccc(C(F)(F)F)c3)n2)c1` [Compound 29], the “protection in the MES test in mice” value in data set [2] was “Some protection”.
For `FC(F)(F)c1ccc(-c2nc(-c3ccccc3)c[nH]2)cc1` [Compound 17], the “action on hNaV1.2 current at 10 μM” value on human Nav1.2 [3] came to 22.7%. The “fold greater potency for hNav1.2 than phenytoin” value on human Nav1.2 [3] (ratio of IC50 values) is given as 4 fold. In data set [2] (0.25 h, text says rats, Supplementary Data Table 1), the “MES protection, animals protected/animals tested at 0.25 h” value was 2/3. Also, the “dose up to which no toxicity was observed” value in the data set on mice is listed as 500 mg/kg.
Turning to `O=[N+]([O-])c1ccc(-c2nc(-c3ccccc3)c[nH]2)cc1` [Compound 15], in data set [2], the “protection in the MES test in mice” value is on record as “Some protection”.
On to `Clc1cccc(-c2c[nH]c(-c3ccccc3)n2)c1` [Compound 20], for which the “action on hNaV1.2 current at 10 μM” value at human Nav1.2 [3] amounted to 16.8%. The “MES protection, animals protected/animals tested at 0.5 h” value in data set [2] is 3/3. In addition, the “dose up to which no toxicity was observed” value in the data set on mice is 500 mg/kg.
As for `COc1cccc(-c2c[nH]c(-c3ccccc3)n2)c1` [Compound 22], the “ability to prevent seizure spread” value in data set [1] was “not able to prevent seizure spread”.
For the compound `O=[N+]([O-])c1cccc(-c2nc(-c3ccccc3)c[nH]2)c1` [Compound 16], in data set [2], the “MES protection, animals protected/animals tested at 0.5 h” value is given as 2/3.
In the case of `Clc1cccc(-c2nc(-c3ccccc3)c[nH]2)c1` [Compound 12], in data set [2], the “protection in the MES test in mice” value is “Some protection”.
For the compound `FC(F)(F)c1ccc(-c2c[nH]c(-c3ccccc3)n2)cc1` [Compound 25], in data set [2], the “protection in the MES test in mice” value was “Some protection”.
With `FC(F)(F)c1cccc(-c2c[nH]c(-c3ccccc3)n2)c1` [Compound 26], the “protection in the MES test in mice” value in data set [2] is “Some protection”.
On to `O=C1NC(=O)C(c2ccccc2)(c2ccccc2)N1` [Phenytoin], for which the “action on hNaV1.2 current at 10 μM” value on human Nav1.2 [4] was 10.6%.
As to `COc1ccc(-c2nc(-c3ccccc3)c[nH]2)cc1` [Compound 13], at human Nav1.2 [3], the “action on hNaV1.2 current at 10 μM” value stood at 30.1%.
For the compound `O=[N+]([O-])c1cccc(-c2c[nH]c(-c3ccccc3)n2)c1` [Compound 24], the “ability to prevent seizure spread” value in data set [1] is “not able to prevent seizure spread”. Besides, in data set [2], the “MES protection, animals protected/animals tested at 0.5 h” value is reported as 2/3.

(Values after PMC2970651 (Bioorganic & medicinal chemistry, 2010).)
